According to patent US8071654B2, “Inhibitors of thromboxane formation and action” (priority 2000, dated 2011):

Legend:
Plase A2 = test: AA formed in collagen-treated washed human platelets (Plase A2), HPLC; type: cell-based; conditions: for Plase A2 enzyme activity (% of control values, mean ± SD): n = 3
Protocol: (§1) 0.5 ml of platelet suspension was added to siliconized glass tubes (four at a time) and heated with magnetic stirring to 37° for 1 min in a platelet aggregometer (PAP-4C). Either vehicle alone (ethanol, 1 μl) or hepoxilin analog was then added, followed two min later by agonist (collagen: 2 μg; PGH2: 100 ng/0.5 ml; U46619: 10 ng/0.5 ml or I-BOP: 2 ng/0.5 ml). The response was recorded for the next 5 min. In experiments where analysis of TxB2 and HHT were to be made by HPLC, the platelet suspension at the end of the experiment was diluted with ethyl acetate, 100 ng of prostaglandin B1 was added as internal standard, and the mixture was acidified to pH 3 with 0.1 N HCl. After centrifugation, the organic layer was separated, washed twice with water to neutrality, and evaporated to dryness. Half of the sample was taken and was resuspended in 1 ml ethyl acetate containing 20 μg ADAM reagent, and was left in the dark for 2 h (38). The solvent was then evaporated and the residue was acetylated with a solution of pyridine/acetic anhydride (3/1, v/v) during 16 h at 23°. The reagents were evaporated to dryness and the residue was resuspended in acetonitrile/water for HPLC analysis. In experiments where the conversion of tritiated PGH2 was to be monitored, the procedure described above was repeated with tritiated PGH2 instead of unlabeled PGH2. After extraction of the sample as described above, the radiolabeled compounds were analyzed by TLC. Dose response curves for varying amounts of test compounds were generated and the data expressed as % inhibition of collagen-induced platelet aggregation. Each point was investigated 5 times and statistical analysis of the data was carried out using Macintosh Statview statistical software.
Measurement of eicosanoids formed by platelets during treatment with collagen or the TP receptor agonists in the presence or absence of PBT-3 was carried out by HPLC after appropriate derivatization with a fluorescent tag (anthracyl diazomethane—ADAM) which forms a fluorescent ester (44). The method was adapted to measure the following compounds: TxB2, HHT, 12-HETE and M. The platelet suspension at the end of the experiment was mixed with ethyl acetate, 100 ng of prostaglandin B1 was added as internal standard and the mixture was acidified to pH 3 with 0.1 N HCl. After centrifugation, the organic layer was separated, washed twice with water to neutrality, and evaporated to dryness. The residue was resuspended in ethyl acetate and half of the sample was taken. It was diluted to 0.2 ml with ethyl acetate containing 20 μg ADAM reagent, and was left in the dark for 2 h. The solvent was then evaporated and the residue was acetylated with a solution of pyridine/acetic anhydride (3/1, v/v) for 16 h at 23°. The reagents were evaporated to dryness and the residue was resuspended in acetonitrile/water for HPLC analysis. Dose response curves for varying amounts of test compounds were generated and the data were expressed as % inhibition of agonist-induced platelet aggregation. Each point was investigated 3 times and statistical analysis of the data was carried out using Macintosh Statview statistical software.
Analysis of the anthryl (ADAM)-acetate derivative of TxB2, HHT and 12 HETE in the extracted platelet samples was carried out on a Hewlett Packard (1100 series) HPLC to which was attached a Shimadzu fluorescent detector (RF-10AXL). The detector was operated with excitation at 364 nm, emission at 411 nm. […]

TP receptor [1] = target: T1, TP receptor (Homo sapiens, UniProt P21731); test: platelet aggregation evoked by I-BOP; type: cell-based; conditions: I-BOP 2 ng/0.5 ml; read-out: IC50 for inhibition of aggregation evoked by I-BOP
T1 construct: endogenous in cells; host or cells: washed human platelets
T1 sequence (P21731 1-343): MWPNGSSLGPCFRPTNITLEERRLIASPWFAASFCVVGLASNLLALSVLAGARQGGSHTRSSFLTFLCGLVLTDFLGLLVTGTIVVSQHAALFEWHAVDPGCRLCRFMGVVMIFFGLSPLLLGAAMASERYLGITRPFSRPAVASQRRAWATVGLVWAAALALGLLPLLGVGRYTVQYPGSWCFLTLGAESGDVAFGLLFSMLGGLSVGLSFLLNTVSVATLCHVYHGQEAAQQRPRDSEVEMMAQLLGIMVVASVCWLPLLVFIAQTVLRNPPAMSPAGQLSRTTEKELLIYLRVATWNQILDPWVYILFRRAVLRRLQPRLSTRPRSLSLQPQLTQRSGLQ
Protocol: Venous blood was obtained from healthy human subjects who had not taken NSAID's for at least two weeks. Blood was drawn into plastic syringes containing ACD. It was immediately centrifuged at 23° at 200×g for 15 min. The platelet rich plasma was transferred into fresh plastic tubes and centrifuged at 400×g for 5 min. The supernatant was discarded and the platelet sediment was resuspended in fresh medium containing NaCl (137 mM), KCl (1 mM), NaH2PO4, glucose (5.5 mM), HEPES (20 mM) and CaCl2 (1 mM) and allowed to stand at room temperature for 30 min. A platelet count was made, which determined the volume of platelet suspension needed to make up 350×10^6 cells for each measurement. The aliquot was diluted with medium to make 0.5 ml/assay/cuvette. […]
0.5 ml of platelet suspension was added to siliconized glass tubes (four at a time) and heated with magnetic stirring to 37° for 1 min in a platelet aggregometer (PAP-4C). […] The response was recorded for the next 5 min. […] In experiments where the conversion of tritiated PGH2 was to be monitored, the procedure described above was repeated with tritiated PGH2 instead of unlabeled PGH2. After extraction of the sample as described above, the radiolabeled compounds were analyzed by TLC. Dose response curves for varying amounts of test compounds were generated and the data expressed as % inhibition of collagen-induced platelet aggregation. […]

TP receptor [2] = target: T1, TP receptor; test: platelet aggregation evoked by the TxA2 mimic U46619; type: cell-based
Protocol: Venous blood was obtained from healthy human subjects who had not taken NSAID's for at least two weeks. Blood was drawn into plastic syringes containing ACD. It was immediately centrifuged at 23° at 200×g for 15 min. The platelet rich plasma was transferred into fresh plastic tubes and centrifuged at 400×g for 5 min. The supernatant was discarded and the platelet sediment was resuspended in fresh medium containing NaCl (137 mM), KCl (1 mM), NaH2PO4, glucose (5.5 mM), HEPES (20 mM) and CaCl2 (1 mM) and allowed to stand at room temperature for 30 min. A platelet count was made, which determined the volume of platelet suspension needed to make up 350×10^6 cells for each measurement. The aliquot was diluted with medium to make 0.5 ml/assay/cuvette. Appropriate calibration of the aggregometer (PAP-4C) for 0% and 100% transmission was carried out through the use of a sample of platelet suspension and cell-free medium (37).
as §1

platelet TP receptor = target: T2, platelet TP receptor (Homo sapiens, UniProt P21731); test: binding of 125I-BOP to platelets
T2 construct: endogenous in cells; host or cells: washed human platelets
T2 sequence (P21731 1-343): T1 sequence (P21731 1-343)
Protocol: Washed platelets were prepared as described above, except that the platelet suspension was made up at a concentration of 10×10^6 cells/0.5 ml. The binding assay involved the addition of radioligand (30,000 cpm ^125I-BOP) to all tubes in triplicate, and either various doses of unlabeled I-BOP (10^−9-10^−7 M), PBT-3 (10^−9-10^−7 M) or U46619 (10^−9-10^−7 M) in 1 μl ethanol. Additional tubes containing excess unlabeled I-BOP were included to assess the extent of non-specific binding.

- IC50 (TP receptor [1]): 60 nM
- effect on U46619-induced aggregation in aspirin-treated platelets (TP receptor [2]; PBT-3 added after aspirin, before U46619): blockade of the aggregation
- IC50 (TP receptor [2]; U46619 10 ng/0.5 ml, read-out: IC50 for inhibition of aggregation evoked by U46619): 700 nM
- inhibition of aggregation evoked by U46619 (TP receptor [2]; dose of 1 μg): inhibited the aggregation
- fold less active than I-BOP in competing with 125I-BOP binding (platelet TP receptor): about 16 fold
- IC50 (platelet TP receptor; 10×10^6 cells/0.5 ml, read-out: IC50 for competition with 125I-BOP binding to platelets): 8.1 nM
Structure (SMILES): CCCCC/C=C\CC1CC1[C@@H](O)/C=C\C/C=C\CCCC(=O)OC (stereo partly drawn) [PBT-3, 10(S)-hydroxy-11,12-cyclopropyl-eicosa-5Z,8Z,14Z-trienoic acid methyl ester]
- Plase A2 enzyme activity (% of control values, mean ± SD) (Plase A2; PBT-3 0.05 μM): 100.0 ± 6.9^NS % of control
- Plase A2 enzyme activity (% of control values, mean ± SD) (Plase A2; PBT-3 0.30 μM): 91.9 ± 5.6^NS % of control
- Plase A2 enzyme activity (% of control values, mean ± SD) (Plase A2; PBT-3 0.60 μM): 89.5 ± 15.6^NS % of control
- Plase A2 enzyme activity (% of control values, mean ± SD) (Plase A2; PBT-3 3.00 μM): 120.8 ± 18.3^NS % of control
- inhibition of Plase A2, in words (Plase A2; relatively large amounts of PBT-3, about 3-4 log doses greater than required to inhibit the TP receptor): Neither COX-1, COX-2,12-LOX nor Plase A2 was inhibited
